Results from patent US7691844B2, “Nonpeptide substituted spirobenzoazepines as vasopressin antagonists” (Ortho-McNeil Pharmaceutical, Inc., priority 2000, dated 2010).

Legend:
[1] = molecular target: T1, V1b (Homo sapiens, UniProt P47901); assay: In-vitro receptor binding assay (3H-arginine-8-vasopressin), V1b; conditions: @ 10 μM
T1 sequence (P47901 1-424): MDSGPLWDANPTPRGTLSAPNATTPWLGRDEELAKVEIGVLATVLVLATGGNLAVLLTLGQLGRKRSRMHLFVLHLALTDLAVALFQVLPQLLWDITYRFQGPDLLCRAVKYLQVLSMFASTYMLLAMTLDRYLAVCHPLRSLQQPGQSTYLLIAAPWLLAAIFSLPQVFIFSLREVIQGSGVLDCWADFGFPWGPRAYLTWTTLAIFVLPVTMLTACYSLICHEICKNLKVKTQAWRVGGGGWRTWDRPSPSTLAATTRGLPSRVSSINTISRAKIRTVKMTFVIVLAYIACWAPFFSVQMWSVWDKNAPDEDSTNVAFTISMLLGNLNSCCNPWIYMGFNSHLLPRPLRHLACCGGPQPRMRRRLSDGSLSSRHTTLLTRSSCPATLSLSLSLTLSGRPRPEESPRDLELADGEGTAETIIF
Experimental: (A) In-Vitro Binding Assay […] The reaction plates are allowed to sit at room temperature for one hour. The samples are filtered through Unifilter GF/C plates (presoaked in 0.3 polyethyleneimine). The plates are washed 5 times with cold physiological saline containing 0.05% Tween 20. After drying, the bottom of the filter plates are sealed and 0.025 ml of Microscint-20 is added to each filter. The top of the plate is sealed, and the plate is counted. Non-specific binding is determined by the addition of 1.25 μM […]-vasopressin in those wells. % Inh. is calculated as follows: […]

[2] = molecular target: T2, V1a (Homo sapiens, UniProt P37288); assay: In-vitro receptor binding assay (3H-arginine-8-vasopressin), V1a
T2 sequence (P37288 whole entry): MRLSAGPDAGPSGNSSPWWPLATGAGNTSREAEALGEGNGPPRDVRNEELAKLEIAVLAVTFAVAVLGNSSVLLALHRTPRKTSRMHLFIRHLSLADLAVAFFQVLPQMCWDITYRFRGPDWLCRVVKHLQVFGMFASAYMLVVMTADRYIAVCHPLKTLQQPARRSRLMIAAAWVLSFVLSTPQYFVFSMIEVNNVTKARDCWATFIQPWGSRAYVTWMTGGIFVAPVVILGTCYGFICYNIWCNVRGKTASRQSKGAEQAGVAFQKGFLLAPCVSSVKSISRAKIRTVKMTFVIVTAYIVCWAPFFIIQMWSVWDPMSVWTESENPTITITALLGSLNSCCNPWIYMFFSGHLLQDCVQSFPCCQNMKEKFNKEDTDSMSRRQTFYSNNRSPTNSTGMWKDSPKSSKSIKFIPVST
How it was run: (§1)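 Radioligand is 3H-arginine-8-vasopressin, incubated with receptor for one hour at room temperature, then filtered on GF/C plates and counted by scintillation. Non-specific binding was defined with 1.25 μM vasopressin, and results are given as % inhibition.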

[3] = molecular target: T2, V1a; assay: V1a vasopressin receptor functional activity (inhibition of vasopressin-induced intracellular calcium, FLIPR, V1a-HEK cells); assay type: cell-based; set-up: expressed in transfected cells; conditions: HEK-293 cells transfected with human V1a receptor; vasopressin challenge
Experimental: [formula] (B) V1a Vasopressin Receptor Functional Activity
The V1a receptor is a G-protein coupled receptor, which upon activation triggers an increase in intracellular calcium mobilization. To evaluate compounds for their functional V1a receptor activity, HEK-293 cells were transfected with the human V1a receptor (V1a-HEK cells). HEK-293 cells were grown in DMEM (Dulbecco's modified Eagle Media) supplemented with 10% FBS and glutamine. HEK-cells were passed biweekly by trypsinization and seeded into 96 well plates at 33,000 cells per well. HEK-293 cells were transfected with human V1a receptor DNA using DMRIE-C reagent from Life Technologies. Stable lines were generated by selecting cells grown in culture media containing geneticin. After growing in Packard Clear-View black 96 well plates for 4-6 days, V1a-HEK cells were loaded with the calcium-sensitive fluorescence dye, FLUO-3 AM. Changes in cell fluorescence were quantitated using FLIPR (Fluorometric Imaging Plate Reader; Molecular Devices, Sunnyvale, Calif.). Test compounds were first added to the cells and the resulting changes in fluorescence measured to detect receptor agonistic activity. Five minutes later the cells were challenged with vasopressin to test compounds for their antagonistic activity. Receptor antagonists inhibit the ability of vasopressin to stimulate increases in intracellular fluorescence. IC50's were calculated.

[4] = molecular target: human V2 receptor (Homo sapiens, UniProt P30518); assay: In-vitro receptor binding assay (3H-arginine-8-vasopressin), V2
Sequence of human V2 receptor (P30518 whole entry): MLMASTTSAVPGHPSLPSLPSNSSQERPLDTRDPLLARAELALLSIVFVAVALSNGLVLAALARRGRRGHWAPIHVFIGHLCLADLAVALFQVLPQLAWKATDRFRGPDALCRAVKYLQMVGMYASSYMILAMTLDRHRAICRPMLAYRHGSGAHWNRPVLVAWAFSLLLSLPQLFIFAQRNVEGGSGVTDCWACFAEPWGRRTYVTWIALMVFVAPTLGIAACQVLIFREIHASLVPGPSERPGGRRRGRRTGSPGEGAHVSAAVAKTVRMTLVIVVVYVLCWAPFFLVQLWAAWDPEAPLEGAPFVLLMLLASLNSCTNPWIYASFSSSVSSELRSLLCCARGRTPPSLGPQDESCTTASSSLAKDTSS
How it was run: as §1

CN(C)CCNC(=O)C1=C[C@]2(CC1)CCN(C(=O)c1ccc(NC(=O)c3ccccc3-c3ccccc3)cc1)c1ccccc1C2 [Compound 20, (S)-4-(2-phenylbenzoyl-4-aminobenzoyl)-3′-(2-(N,N-dimethylaminoethylaminocarbonyl))-4-aza-[6,4]-spiro-[5,6]-benzoundec-2′-ene]
Receptor Binding V1b (% Inh. @ concentration in μM) [1]: 13% @ 10
IC50 [2]: 0.003 µM
IC50 [3]: 0.002 µM
IC50 [4]: 0.016 µM
